Results from ChEMBL document CHEMBL5512624, “OSMAC Strategy: A promising way to explore microbial cyclic peptides” (Eur J Med Chem, 2024).
In brackets after ≈: the same amount, converted by molar mass. Numbered stars: 1 amine (or outer) side, 2 acyl side, 3 side chain; on linkers, the order of the positions; unused ones are H or OH. Square brackets hold non-standard residues; d marks the D form. Peptide text beside a SMILES is read from it. X5 = C=C(N[*:1])c1nc(-c2nc(C(=O)[*:2])ccc2-c2nccs2)co1; X1 = CCC(C)CCCCCCCCCCC[C@H](N[*:1])C(=O)[*:2]; X7 = CC(C)CCCCCCCCCCC[C@H](N[*:1])C(=O)[*:2]; X2 = CCC(C)CCCCCCCCC[C@H](N[*:1])C(=O)[*:2]; X6 = CC(C)CCCCCCCCCC[C@H](N[*:1])C(=O)[*:2]; X8 = CCCCCCCCCCCCCC[C@H](N[*:1])C(=O)[*:2]; Gly(Dodecyl) = CCCCCCCCCCCC[C@H](N)C(=O)O; X3 = C/C=C(\N[*:1])c1nc(C(=O)[*:2])co1; X4 = C=C(N[*:1])c1nc(C(=O)[*:2])c(C)o1; NMeY = CN[C@@H](Cc1ccc(O)cc1)C(=O)O; Val(3-OH) = CC(C)(O)[C@H](N)C(=O)O; Dha = C=C(N)C(=O)O

What was measured:
[1] = Inhibition rat liver microsome ACAT; assay type: microsomes
[2] = tested on: HL-60; experiment: Cytotoxicity against human HL-60 cells assessed as reduction in cell viability incubated for 24 hrs by MTT assay; assay type: functional, cell-based; conditions: HL-60, 24 h
[3] = tested on: MCF7; experiment: Cytotoxicity against human MCF7 cells assessed as reduction in cell viability incubated for 24 hrs by MTT assay; assay type: functional, cell-based; conditions: MCF7, 24 h
[4] = tested on: SW480; experiment: Cytotoxicity against human SW480 cells assessed as reduction in cell viability incubated for 24 hrs by MTT assay; assay type: functional, cell-based; conditions: SW480, 24 h
[5] = tested on: Aspergillus fumigatus; experiment: Antifungal activity against Aspergillus fumigatus ATCC 46645 assessed as fungal growth inhibition incubated for 24 hrs by CLSI protocol based broth microdilution method; assay type: functional, organism-based; conditions: ATCC 46645, 24 h
[6] = tested on: Influenza A virus; experiment: Antiviral activity against Influenza A virus H9N2 infected in MDCK cells assessed as inhibition of viral replication; assay type: functional, organism-based
[7] = tested on: Aspergillus niger; experiment: Antifungal activity against Aspergillus niger assessed as fungal growth inhibition; assay type: functional
[8] = tested on: Human alphaherpesvirus 1; experiment: Antiviral activity against HSV-1 infected in African green monkey Vero cells by plaque reduction assay; assay type: functional, organism-based; conditions: Human alphaherpesvirus 1, Vero
[9] = tested on: Trypanosoma cruzi; experiment: Antitrypanosomal activity against Trypanosoma cruzi amastigote assessed as parasite growth inhibition incubated for 24 hrs by light microscopic analysis; assay type: functional, organism-based
[10] = tested on: Plasmodium falciparum; experiment: Antiplasmodial activity against Plasmodium falciparum 3D7 assessed as reduction in parasite growth incubated for 72 hrs by SYBR Green dye based fluorescence assay; assay type: functional, organism-based; conditions: 3D7, 72 h

In the case of `CC(C)[C@H]1OC(=O)[C@H](Cc2ccccc2)N(C)C(=O)[C@@H](C(C)C)OC(=O)[C@H](Cc2ccccc2)N(C)C(=O)[C@@H](C(C)C)OC(=O)[C@H](Cc2ccccc2)N(C)C1=O`, the IC50 [1] is reported as 3 µM.

`CC[C@H](C)[C@@H]1NC(=O)[C@@H]2[C@H](C)CCN2C(=O)[C@H](C[C@H](O)CCl)OC(=O)CCNC(=O)[C@@H](C)N(C)C(=O)[C@H]([C@@H](C)CC)N(C)C1=O` gave an IC50 [2] of 0.149 µM, an IC50 [3] of 0.079 µM and an IC50 [4] of 0.107 µM.

`CCCCCCC/C=C/C=C/C=C/[C@H](C[C@H](O)C[C@H]1NC(=O)[C@H](C[C@H](O)CO)NC(=O)[C@@H](CC(N)=O)NC(=O)[C@H](C[C@H](O)CO)NC(=O)[C@H](C)CNC(=O)[C@H]1O)OC` showed an IC50 [5] of 4 µM.

With `C=C(NC(=O)c1nc(C(=C)NC(=O)[C@@H](NC(=O)C(=C)NC(=O)c2coc(/C(=C/C)NC(=O)[C@@H](NC(C)=O)[C@@H](C)O)n2)C(C)C)oc1C)C(=O)NC(=C)c1nc(-c2nc(C(N)=O)ccc2-c2nccs2)co1` the IC50 [6] was 28.7 µM.

`CCCCCCC/C=C/C=C/C=C/[C@H](C[C@H](O)C[C@@H]1CC(=O)NC[C@@H](C)C(=O)N[C@@H](C[C@H](O)CO)C(=O)N[C@H](CC(N)=O)C(=O)N[C@@H](C[C@H](O)CO)C(=O)N1)OC` gave an IC50 [5] of 4 µM.

Work on `CCCCCCC/C=C/C=C/C=C/[C@H](C[C@H](O)C[C@H]1NC(=O)[C@H](C[C@H](O)CO)NC(=O)[C@@H](CC(N)=O)NC(=O)[C@H](CC(N)=O)NC(=O)[C@H](C)CNC(=O)[C@H]1O)OC` yielded an IC50 [5] of 4 µM.

In the case of `CCCCCCC/C=C/C=C/C=C/[C@H](C[C@H](O)C[C@@H]1CC(=O)NC[C@@H](C)C(=O)N[C@@H](CC(N)=O)C(=O)N[C@H](CC(N)=O)C(=O)N[C@@H](C[C@H](O)CO)C(=O)N1)OC`, the IC50 [5] is reported as 4 µM.

In the case of `CCCCCCC/C=C/C=C/C=C/[C@H](C[C@H](O)C[C@H]1NC(=O)[C@H](C[C@H](O)C(C)O)NC(=O)[C@@H](CC(N)=O)NC(=O)[C@H](CC(N)=O)NC(=O)[C@H](C)CNC(=O)[C@H]1O)OC` (some centres not stated), the IC50 [5] is reported as 4 µM.

Compound `C=C(NC(=O)C(=C)NC(=O)c1ccc(-c2nccs2)c(-c2coc(C(=C)NC(=O)C(=C)NC(=O)c3nc(C(=C)NC(=O)[C@@H](NC(=O)C(=C)NC(=O)c4coc(/C(=C/C)NC(=O)[C@@H](NC(C)=O)[C@@H](C)O)n4)C(C)C)oc3C)n2)n1)C(N)=O` (Ac-T[X3][Dha]V[X4][Dha][X5][Dha][Dha]-NH2) has an IC50 [6] of 18.3 µM.

Work on `C=C(NC(=O)c1ccc(-c2nccs2)c(-c2coc(C(=C)NC(=O)C(=C)NC(=O)c3nc(C(=C)NC(=O)[C@@H](NC(=O)C(=C)NC(=O)c4coc(/C(=C/C)NC(=O)[C@@H](NC(C)=O)[C@@H](C)O)n4)C(C)(C)O)oc3C)n2)n1)C(N)=O` (Ac-T[X3][Dha][Val(3-OH)][X4][Dha][X5][Dha]-NH2) yielded an IC50 [6] of 7.3 µM.

Compound `C=C(NC(=O)C(=C)NC(=O)c1ccc(-c2nccs2)c(-c2coc(C(=C)NC(=O)C(=C)NC(=O)c3nc(C(=C)NC(=O)[C@@H](NC(=O)C(=C)NC(=O)c4coc(/C(=C/C)NC(=O)[C@@H](NC(C)=O)[C@@H](C)O)n4)C(C)(C)O)oc3C)n2)n1)C(N)=O` (Ac-T[X3][Dha][Val(3-OH)][X4][Dha][X5][Dha][Dha]-NH2) has an IC50 [6] of 15.3 µM.

Compound `CCCCCCCCCCCC[C@@H]1NC(=O)[C@@H]2CCCN2C(=O)[C@H](CCC(N)=O)NC(=O)[C@H](CC(N)=O)NC(=O)[C@H](CO)NC(=O)[C@H](CC(N)=O)NC(=O)[C@H](Cc2ccc(O)cc2)NC(=O)[C@H](CC(N)=O)NC1=O` (cyclo(NQP[Gly(Dodecyl)]NYNS)) has an MIC [7] of 3.12 µg/mL (≈ 2.99 µM).

Work on `CCC(C)CCCCCCCCCCC[C@@H]1NC(=O)[C@@H]2CCCN2C(=O)[C@H](CCC(N)=O)NC(=O)[C@H](CC(N)=O)NC(=O)[C@H](CO)NC(=O)[C@H](CC(N)=O)NC(=O)[C@H](Cc2ccc(O)cc2)NC(=O)[C@H](CC(N)=O)NC1=O` (some centres not stated) (cyclo(NQP[X1]NYNS)) yielded an MIC [7] of 3.12 µg/mL (≈ 2.87 µM).

In the case of `CCC(C)CCCCCCCCC[C@@H]1NC(=O)[C@@H]2CCCN2C(=O)[C@H](CCC(N)=O)NC(=O)[C@H](CC(N)=O)NC(=O)[C@H](CO)NC(=O)[C@H](CC(N)=O)NC(=O)[C@H](Cc2ccc(O)cc2)NC(=O)[C@H](CC(N)=O)NC1=O` (some centres not stated) (cyclo(NQP[X2]NYNS)), the MIC [7] is reported as 3.12 µg/mL (≈ 2.95 µM).

`CC(C)CCCCCCCCCC[C@@H]1NC(=O)[C@@H]2CCCN2C(=O)[C@H](CCC(N)=O)NC(=O)[C@H](CC(N)=O)NC(=O)[C@H](CO)NC(=O)[C@H](CC(N)=O)NC(=O)[C@H](Cc2ccc(O)cc2)NC(=O)[C@H](CC(N)=O)NC1=O` (cyclo(NQP[X6]NYNS)) gave an MIC [7] of 3.12 µg/mL (≈ 2.95 µM).

Compound `CC(C)CCCCCCCCCCC[C@@H]1NC(=O)[C@@H]2CCCN2C(=O)[C@H](CCC(N)=O)NC(=O)[C@H](CC(N)=O)NC(=O)[C@H](CO)NC(=O)[C@H](CC(N)=O)NC(=O)[C@H](Cc2ccc(O)cc2)NC(=O)[C@H](CC(N)=O)NC1=O` (cyclo(NQP[X7]NYNS)) has an MIC [7] of 3.12 µg/mL (≈ 2.91 µM).

Compound `CCCCCCCCCCCCCC[C@@H]1NC(=O)[C@@H]2CCCN2C(=O)[C@H](CCC(N)=O)NC(=O)[C@H](CC(N)=O)NC(=O)[C@H](CO)NC(=O)[C@H](CC(N)=O)NC(=O)[C@H](Cc2ccc(O)cc2)NC(=O)[C@H](CC(N)=O)NC1=O` (cyclo(NQP[X8]NYNS)) has an MIC [7] of 3.12 µg/mL (≈ 2.91 µM).

`COc1ccc(C[C@@H]2NC(=O)[C@@H]3CCCN3C(=O)[C@H](C(C)C)NC(=O)[C@H](Cc3ccc(O)cc3)N(C)C(=O)[C@H](Cc3ccc(OC)cc3)NC2=O)cc1` (cyclo([NMeY]VPY(Me)Y(Me))) showed an IC50 [8] of 9.5 µM.

With `COc1ccc2c3c([nH]c2c1)[C@H](C=C(C)C)N1C(=O)[C@@H]2CCCN2C(=O)[C@@H]1C3` [FUMITREMORGIN] the IC50 [9] was 9.6 µM and the IC50 [10] was 2.3 µM.
